Source: PMC5278707, “Structure-Activity Relationships of a Series of Echinocandins and the Discovery of CD101, a Highly Stable and Soluble Echinocandin with Distinctive Pharmacokinetic Properties” (Antimicrobial Agents and Chemotherapy, 2017)
≈ marks a conversion by molar mass, not a printed value. Read-outs that look alike come from different tables or passages of the source. *1 amine or outer side, *2 acyl side, *3 side chain or, on linkers, in order; H or OH if unused. Where a SMILES comes first, the peptide text is derived from it. Bridges are numbered along the chain shown (N, C = ends). [ ]: non-standard residue; d: D form. The star is where a group is joined. Orn(4R-OH,5R-OCH2CH2NMe3+) = C[N+](C)(C)CCO[C@@H](N[*:3])[C@H](O)C[C@H](N[*:1])C(=O)[*:2]; pTerphenylCO(4''-OnC5H11) = CCCCCOc1ccc(-c2ccc(-c3ccc(C(=O)*)cc3)cc2)cc1; Orn(4R-OH,5R-OH) = O=C([C@H](C[C@@H](O)[C@@H](O)N[*:3])N[*:1])[*:2]; hTyr(3S-OH,4S-OH) = N[C@H](C(=O)O)[C@H](O)[C@@H](O)c1ccc(O)cc1; Pro(3S-OH,4S-Me) = C[C@H]1CN[C@H](C(=O)O)[C@H]1O; Hyp = O=C(O)[C@@H]1C[C@@H](O)CN1

Tests used:
[1] = test system: Aspergillus niger ATCC 16888; experiment: CLSI broth microdilution (M38-A2) MEC/MIC; format: cell-based; conditions: 48 h, stunted hyphal growth
Description: (§1) All yeast and mold isolates were obtained from the American Type Culture Collection (ATCC). Isolates were plated on an agar medium to verify purity, and single colonies were picked. Aspergillus isolates were resubcultured on potato dextrose slants and incubated for 7 days at 35°C. Candida isolates were streaked on SDA plates and incubated for 24 h at 35°C. RPMI 1640 medium (HyClone Laboratories, Logan, UT) and the inoculum for each organism were prepared according to Clinical and Laboratory Standards Institute (CLSI) guidelines ([27][–][29]). Stock solutions for all test articles were prepared in 100% dimethyl sulfoxide (DMSO). Susceptibility testing was performed using CLSI broth microdilution methods for Candida (M27-A3) and Aspergillus (M38-A2). Amphotericin B was tested at a range of 0.06 to 64 μg/ml; all other antifungal agents were tested at 0.015 to 16 μg/ml. Plates were incubated at 35°C and were read from the bottom using a plate viewer after 24 and 48 h for Candida and after 48 h for Aspergillus. MIC values are reported as the lowest drug concentration to yield a 50% reduction in the growth of Candida species tested compared to the control well. Minimum effective concentration (MEC) values are reported as the lowest drug concentration to yield the stunted hyphal growth of Aspergillus species tested compared to that of the control well.

[2] = test system: Aspergillus ochraceus ATCC 96919; experiment: CLSI broth microdilution (M38-A2) MEC/MIC; format: cell-based; conditions: 48 h, stunted hyphal growth
Description: as §1

[3] = test system: Aspergillus fumigatus ATCC 204305; experiment: CLSI broth microdilution (M38-A2) MEC/MIC; format: cell-based; conditions: 48 h, stunted hyphal growth
Description: as §1

[4] = test system: Aspergillus flavus ATCC 22546; experiment: CLSI broth microdilution (M38-A2) MEC/MIC; format: cell-based; conditions: 48 h, stunted hyphal growth
Description: as §1

[5] = test system: Aspergillus candidus ATCC 13686; experiment: CLSI broth microdilution (M38-A2) MEC/MIC; format: cell-based; conditions: 48 h, stunted hyphal growth
Description: as §1

[6] = test system: Aspergillus fumigatus ATCC MYA-3626; experiment: CLSI broth microdilution (M38-A2) MEC/MIC; format: cell-based; conditions: 48 h, stunted hyphal growth
Description: as §1

Aspergillus spp. = experiment: CLSI broth microdilution (M38-A2) MEC, whole panel; format: cell-based; conditions: 48 h, summary of Table 3
Description: as §1

[7] = test system: Aspergillus clavatus ATCC 10058; experiment: CLSI broth microdilution (M38-A2) MEC/MIC; format: cell-based; conditions: read at 68 h, stunted hyphal growth
Description: as §1, with “Plates were incubated at 35°C and were read from the bottom using a plate viewer after 24 and 48 h for Candida and after 48 h for Aspergillus.” left out

[8] = test system: Candida albicans ATCC 90028; experiment: CLSI broth microdilution (M27-A3) MIC; format: cell-based; conditions: 50% reduction in growth
Description: as §1

[9] = test system: Candida guilliermondii ATCC 34134; experiment: CLSI broth microdilution (M27-A3) MIC; format: cell-based; conditions: Meyerozyma guilliermondii, ATCC34134, 50% reduction in growth
Description: as §1

[10] = test system: Candida krusei ATCC 14243; experiment: CLSI broth microdilution (M27-A3) MIC; format: cell-based; conditions: Pichia kudriavzevii, ATCC14243, 50% reduction in growth
Description: as §1

[11] = test system: Candida parapsilosis ATCC 22019; experiment: CLSI broth microdilution (M27-A3) MIC; format: cell-based; conditions: Lodderomyces parapsilosis, ATCC22019, 50% reduction in growth
Description: as §1

[12] = test system: Candida tropicalis ATCC 90874; experiment: CLSI broth microdilution (M27-A3) MIC; format: cell-based; conditions: 50% reduction in growth
Description: as §1

[13] = test system: Candida lusitaniae ATCC 34134; experiment: CLSI broth microdilution (M27-A3) MIC; format: cell-based; conditions: Clavispora lusitaniae
Description: as §1

[14] = test system: Candida glabrata ATCC 90030; experiment: CLSI broth microdilution (M27-A3) MIC; format: cell-based; conditions: Nakaseomyces glabratus, ATCC90030, 50% reduction in growth, read-out: MIC
Description: as §1

[15] = single-dose pharmacokinetics in beagle dogs; conditions: male, dog, in vivo, iv
Description: Four male, nonnaive beagle dogs received a single i.v. infusion (1.4 mg/kg) of test article over 10 min via a catheter placed in the cephalic vein. Blood draws (1.0 ml) were taken at 0.083, 0.33, 0.75, 1.5, 4.5, 12, 24, and 48 h. An additional blood draw at 72 h was obtained for CD101. Blood draws were taken from the jugular vein and were collected into K3 EDTA tubes. Following blood collection, the samples were immediately inverted several times and were held on wet ice pending centrifugation. The samples were centrifuged within ∼30 min of collection under refrigeration (∼5°C for ∼10 min at ∼2,000 g) to obtain plasma. The plasma samples were frozen immediately on dry ice after separation and were stored at approximately −70°C until analysis. Levels of test article in the plasma samples were measured by quantitative liquid chromatography-tandem mass spectrometry (LC-MS/MS) analysis compared to a calibration curve and an internal standard. Pharmacokinetic parameters were calculated from the plasma concentration-time data using standard noncompartmental methods and utilizing WinNonlin analysis software.

[16] = humans, clinical trials ref 22; cited from earlier work
Candida albicans R303 = experiment: mouse model of disseminated candidiasis, fungal burden in kidneys; format: in vivo; conditions: kidneys at 24 h; for reductions in fungal burden vs infected control (statistical significance): neutropenic CD-1 mice, 0.5, 1.5 or 4.5 mg/kg 2 h after inoculation
Description: Candida albicans R303 was grown on Sabouraud dextrose agar (SDA) plates for 24 h at 35°C. Colonies were transferred to phosphate-buffered saline (PBS) and diluted to 3.8 × 10^5 CFU/ml. Female CD-1 mice (Charles River Laboratories, Portage, MI) were rendered neutropenic via injection with cyclophosphamide (150 mg/kg) 5 days and 2 days prior to inoculation. Each animal was infected by injecting 0.1 ml of inoculum into the tail vein. In the treatment groups, animals received 0.5, 1.5, or 4.5 mg/kg of test article 2 h after inoculation. Two groups of untreated, infected controls were used to evaluate fungal burden: at 2 h when test articles were administered in the treatment groups and at 24 h when the treatment groups were sacrificed. Kidneys were harvested at 2 h in one untreated control group and at 24 h in all other groups. The kidneys were homogenized in 2 ml of sterile phosphate-buffered saline, and 0.1-ml aliquots were spread on SDA plates and incubated at 35°C overnight. Fungal burden was determined based on the log10 C. albicans CFU counts from paired kidneys. Data were analyzed using a one-way analysis of variance (ANOVA) and the Dunnett multiple comparisons test comparing the test articles to the infected control group (GraphPad InStat version 3.1; GraphPad Software, San Diego, CA).

[17] = beagle dogs, single i.v. 1.4 mg/kg, 10-min slow bolus
[18] = beagle dogs, single i.v. 1.4 mg/kg, 10-min slow bolus, read-out: V (volume of distribution)
[19] = beagle dogs, single i.v. 1.4 mg/kg, 10-min slow bolus, read-out: t1/2 (converted)
[20] = ATCC34134, 24 h, 50% reduction in growth, read-out: MIC
[21] = ATCC34134, 48 h, 50% reduction in growth, read-out: MIC

SMILES	MEC [1]	MEC [2]	MEC [3]	MEC [4]	MEC [5]	MEC [6]	MEC values against all Aspergillus species tested (Aspergillus spp.)	MEC [7]	MIC ([8]; ATCC90028, 24 h)	MIC ([8]; ATCC90028, 48 h)	MIC ([9]; 24 h)	MIC ([9]; 48 h)	MIC ([10]; 24 h)	MIC ([10]; 48 h)	MIC ([11]; 24 h)	MIC ([11]; 48 h)	MIC ([12]; ATCC90874, 24 h)	MIC ([12]; ATCC90874, 48 h)	MIC ([14]; 24 h)	MIC ([14]; 48 h)	also measured
CCCCCOc1ccc(-c2ccc(-c3ccc(C(=O)N[C@H]4C[C@@H](O)[C@@H](O)NC(=O)[C@@H]5[C@@H](O)[C@@H](C)CN5C(=O)[C@H]([C@@H](C)O)NC(=O)[C@H]([C@H](O)[C@@H](O)c5ccc(O)cc5)NC(=O)[C@@H]5C[C@@H](O)CN5C(=O)[C@H]([C@@H](C)O)NC4=O)cc3)cc2)cc1 [Anidulafungin, anidulafungin] ({pTerphenylCO(4''-OnC5H11)}-[Orn(4R-OH,5R-OH)]T[Hyp][hTyr(3S-OH,4S-OH)]T[Pro(3S-OH,4S-Me)]; lactam 1-C)	≤0.015 µg/mL	0.03 µg/mL	≤0.015 µg/mL	≤0.015 µg/mL	≤0.015 µg/mL	≤0.015 µg/mL	below 0.03 μg/ml	≤0.015 µg/mL	≤ 0.015 µg/mL	≤ 0.015 µg/mL	1 µg/mL (≈ 0.877 µM)	2 µg/mL (≈ 1.75 µM)	0.03 µg/mL (≈ 0.0263 µM)	0.06 µg/mL (≈ 0.0526 µM)	0.5 µg/mL (≈ 0.438 µM)	0.5 µg/mL (≈ 0.438 µM)	≤ 0.015 µg/mL	≤ 0.015 µg/mL	0.03 µg/mL (≈ 0.0263 µM)	0.03 µg/mL (≈ 0.0263 µM)	MIC ([13]; ATCC34134, 24 h): 0.125 µg/mL (≈ 0.11 µM); MIC ([13]; ATCC34134, 48 h): 0.125 µg/mL (≈ 0.11 µM); clearance [15, 17]: 0.783 mL/min/kg; Vd [15, 18]: 0.779 L/kg; half-life [15, 19]: 11.6 h
CCCCCOc1ccc(-c2ccc(-c3ccc(C(=O)N[C@H]4C[C@@H](O)[C@@H](OCC[N+](C)(C)C)NC(=O)[C@@H]5[C@@H](O)[C@@H](C)CN5C(=O)[C@H]([C@@H](C)O)NC(=O)[C@H]([C@H](O)[C@@H](O)c5ccc(O)cc5)NC(=O)[C@@H]5C[C@@H](O)CN5C(=O)[C@H]([C@@H](C)O)NC4=O)cc3)cc2)cc1 [CD101] ({pTerphenylCO(4''-OnC5H11)}-[Orn(4R-OH,5R-OCH2CH2NMe3+)]T[Hyp][hTyr(3S-OH,4S-OH)]T[Pro(3S-OH,4S-Me)]; lactam 1-C)	≤0.015 µg/mL	0.03 µg/mL	≤0.015 µg/mL	≤0.015 µg/mL	≤0.015 µg/mL	≤0.015 µg/mL	below 0.03 μg/ml	0.03 µg/mL	0.03 µg/mL	0.03 µg/mL	0.5 µg/mL	2 µg/mL	0.03 µg/mL	0.03 µg/mL	0.5 µg/mL	1 µg/mL	≤ 0.015 µg/mL	≤ 0.015 µg/mL	0.03 µg/mL	0.03 µg/mL	half-life in clinical trials [16]: > 80 h; MIC [13, 20]: 0.25 µg/mL; MIC [13, 21]: 0.25 µg/mL; clearance [15, 17]: 0.317 mL/min/kg; Vd [15, 18]: 1.36 L/kg; half-life [15, 19]: 53.1 h; reductions in fungal burden vs infected control (statistical significance) (Candida albicans R303): statistically significant (P < 0.01) reductions in fungal burden at all doses; fungal burden relative to limit of detection (Candida albicans R303; neutropenic CD-1 mice, 0.5, 1.5 or 4.5 mg/kg): below the limit of detection for at least one of the doses
CCCCCOc1ccc(-c2ccc(-c3ccc(C(=O)N[C@H]4C[C@@H](O)[C@@H](NCC[N+](C)(C)C)NC(=O)[C@@H]5[C@@H](O)[C@@H](C)CN5C(=O)[C@H]([C@@H](C)O)NC(=O)[C@H]([C@H](O)[C@@H](O)c5ccc(O)cc5)NC(=O)[C@@H]5C[C@@H](O)CN5C(=O)[C@H]([C@@H](C)O)NC4=O)cc3)cc2)cc1 [Compound 6]	≤0.015 µg/mL	0.03 µg/mL	≤0.015 µg/mL	≤0.015 µg/mL	≤0.015 µg/mL	≤0.015 µg/mL	below 0.03 μg/ml	0.03 µg/mL	0.03 µg/mL	0.03 µg/mL	0.5 µg/mL	1 µg/mL	0.03 µg/mL	0.03 µg/mL	0.25 µg/mL	0.5 µg/mL	≤ 0.015 µg/mL	≤ 0.015 µg/mL	0.03 µg/mL	0.03 µg/mL	MIC [13, 20]: 0.25 µg/mL; MIC [13, 21]: 0.25 µg/mL; Vd ([15]; beagle, 1.4 mg/kg): 0.874 L/kg; half-life ([15]; beagle, 1.4 mg/kg): 27.6 h; reductions in fungal burden vs infected control (statistical significance) (Candida albicans R303): statistically significant (P < 0.01) reductions in fungal burden at all doses
